Test results reported in ChEMBL document CHEMBL3797140, “Acridin-3,6-dialkyldithiourea hydrochlorides as new photosensitizers for photodynamic therapy of mouse leukemia cells” (Bioorg Med Chem, 2016).

Tests used:
L1210 = assay: Phototoxicity against mouse L1210 cells assessed as cell viability preincubated for 1 hr followed by 1.05 J/cm2 UV-A irradiation measured after 48 hrs by MTT assay; type: functional, cell-based; settings: L1210, light or radiation study
[1] = Dark toxicity against mouse L1210 cells assessed as cell viability after 48 hrs by MTT assay; type: cell-based
[2] = Dark toxicity against mouse NIH/3T3 cells assessed as cell viability after 48 hrs by MTT assay; type: cell-based, NIH3T3
[3] = Phototoxicity against mouse NIH/3T3 cells assessed as cell viability preincubated for 1 hr followed by 1.05 J/cm2 UV-A irradiation measured after 48 hrs by MTT assay; type: cell-based; settings: NIH3T3, light or radiation study

SMILES | IC50 (L1210) | IC50 at 48 h [1] | IC50 at 48 h [2] | IC50 [3]
CCCCCNC(=S)Nc1ccc2cc3ccc(NC(=S)NCCCCC)cc3nc2c1 | 0.6 µM | 9.2 µM | 37.5 µM | 3.7 µM
CCCCNC(=S)Nc1ccc2cc3ccc(NC(=S)NCCCC)cc3nc2c1 | 0.52 µM | 6.6 µM | 32.7 µM | 2.6 µM
